The source of these data is patent publication US20170027897A1, “mTORC1 MODULATION BY AMINO ACIDS AND USES THEREOF” (WHITEHEAD INSTITUTE FOR BIOMEDICAL RESEARCH, priority 2013, published 2017).

Data set [1] has as its system mTORC1. Put plainly: Amino acid starvation and re-stimulation of HEK-293T cells, phospho-S6K western blot. Format: cell-based, human. The following applies: whole-cell assays of mTORC1 activity; partly called preliminary evidence. An excerpt:
The work described herein determined which amino acids are most critical for signaling to the mTORC1 pathway in HEK-293T cells, the workhorse cell culture system to which we owe much of our understanding about amino acid sensing. The basic experimental paradigm consists of a 50-minute total amino acid starvation followed by a 10-minute stimulation with a customizable set of amino acids. […] The work described herein determined that that there may be one or more missing amino acids that, when added alongside Leu and Arg, could fully activate mTORC1.
To determine the identities of these missing amino acids, the inventors first stimulated cells with the set of essential or the set of nonessential amino acids. […] The inventors then tested triplet amino acid combinations comprised of Leu, Arg, and one additional essential amino acid. […] Cocktails of EAAs that omitted one amino acid at a time were prepared. […] Thus the necessity and sufficiency experiments yielded complementary results, converging on Leu, Arg, and Lys as key signals for mTORC1 activation in 293T cells.
The inventors have explored why this particular combination of amino acids has such synergistic effects on the mTORC1 pathway in 293T cells. Given that both Arg and Lys contain basic side chains, the inventors first wondered if this shared chemical property underlay their abilities to activate mTORC1.
Furthermore, the inventors continue to characterize structure-activity relationships using LRK derivatives with modifications on the carboxy terminus, the amino terminus, and/or the side chain in whole-cell and in vitro lysosomal assays of mTORC1 activity. The inventors first tested amino acid carboxyesters, whose enhanced ability to permeate membranes render them good candidates for lysosomal loading. Once inside the lysosome, amino acid esters are thought to undergo hydrolysis to yield their native counterparts. […] Knowledge of the chemical space around LRK can be used to develop probes for interrogating the LRK/protein(s) interaction interface for isolating and/or enriching the amino acid sensor(s) feeding into mTORC1.

For data set [2], the system named is mTORC1. Briefly: mTORC1 activity in MEFs (immunoblotting). The format is cell-based, mouse. The following applies: AMPK activator treatment. The procedure:
FIG. 16A is a bar graph illustrating the decrease in plasma amino acids in all 1 h fasted neonates. […] FIG. 16C is a western blot depicting the time course of mTORC1 and AMPK activity in AMPK-wt, AMPK-DKO, RagA^+/+ and RagA^GTP/GTP MEFs deprived of glucose for 0.5, 2 and 4 h. FIG. 16D is a western blot of whole cell lysates immunoblotted for the indicated proteins, showing control HEK-293T cells or those expressing RagB^GTP were deprived of growth factors, glucose, amino acids, or glucose and amino acids for 1 h and re-stimulated with glucose and/or amino acids for 10 min. FIG. 16E is a graph illustrating the quantification of the western blots on FIG. 12B and FIG. 16D. FIG. 16F is a western blot showing the effect of amino acid esters on mTORC1 activity in wt MEFs. FIG. 16G is a bar graph showing the quantification of amino acids in RagA^+/+ and RagA^GTP/GTP MEFs deprived of glucose (relative to un-starved controls). […]
Maintenance of mTORC1 activity requires the simultaneous presence of growth factors, amino acids, and glucose^1. […] In addition, AMPK activity, as monitored by acetyl-CoA carboxylase (ACC) phosphorylation, was induced to similar levels in glucose-deprived RagA^+/+ and RagA^GTP/GTP cells (FIG. 12B and FIG. 16C), but absent in AMPK-null cells (FIG. 12A).

The conditions of data set [3]: cited from earlier work.
The subject of a further data set is RagA^GTP/GTP neonates. Put plainly: Survival, glucose homeostasis and autophagy of fasted RagA^GTP/GTP neonates. The format is in vivo, mouse.
Data set [4] concerns mTORC1. Put plainly: Phosphorylated S6 in gastrocnemius muscle and liver of fasted rats after oral gavage or bolus IV injection. The format is in vivo. The following applies: summary of the rat studies. The procedure: FIGS. 23A, 23B, 23C and 23D depict the effect of administering various combinations of amino acids on levels of phosphorylated ribosomal protein S6 (pS6) in gastrocnemius muscle and liver. FIGS. 23A and 23B are bar graphs showing the fold increase in pS6/actin protein ratios in fasted rat gastrocnemius muscle (FIG. 23A) or liver (FIG. 23B) 30 and 60 minutes after administering amino acids via oral gavage. FIGS. 23C and 23D are bar graphs showing the fold increase in pS6/actin protein ratios in fasted rat gastrocnemius muscle (FIG. 23C) or liver (FIG. 23D) 30 and 60 minutes after administering amino acids via intravenous bolus injection.
Rats (n=3), fasted for 24 hours, were administered LRK or LCK via oral gavage or bolus IV injection and gastrocnemius muscle and liver was isolated 30 and 60 minutes later. Gastrocnemius muscle and liver was analyzed by SDS-PAGE followed by western blotting for levels of phosphorylated S6—a marker of mTORC1 activity.

A short description of data set [5]: Free amino acid levels in gastrocnemius muscle by LC-MS in fasted mice. Format: in vivo, mouse. Particulars: upon IP injection of citrulline containing formulations.
Data set [6] has as its system mTORC1. Briefly: Muscle mTORC1 activation in immobilized and fasted mice after IP injection (phosphorylated S6, 4EBP1). The format is in vivo, mouse. The following applies: 18-hour fast, 30 minutes.
Procedure: Mice were subjected to a model of hindlimb immobilization for 5 days in which the left hindlimb was casted as described in Example 2 in order to induce atrophy. Food and water were provided ad libitum. The night before day 6, food was withdrawn and the mice were subjected to an 18-hour overnight fast. […] Right (R; control) and left (L*; immobilized) gastrocnemius muscles were collected 30 minutes after treatment, snap frozen in liquid nitrogen, and processed for western blotting analysis with appropriate antibodies as previously described.
The subject of another data set is muscle protein synthesis. Briefly: Muscle protein synthetic rate in starved rats (flooding dose of radiolabeled phenylalanine). Format: in vivo, rat. Particulars: oral, 25% dose, 45 minutes, versus fasted vehicle control. The procedure: FIGS. 24A and 24B depict the effect of various amino acid combinations or a Leu-Arg-Lys tripeptide on phosphorylation of an mTORC1 substrate and the rate of muscle protein synthesis in starved rats.
To address this question, starved rats (n=8) were given oral doses of leucine, LR, LR(k), LC(k) and the LRK peptide and muscle protein synthetic rates were measured by administering a flooding dose of radiolabeled phenylalanine 10 minutes before sacrifice and quantifying uptake of radiolabeled phenylalanine.
Starved rats were dosed with amino acids benchmarked to either 5% of 25% of their daily intake of leucine. Rats were sacrificed 45 minutes after oral gavage and tissues and plasma was collected for mTORC1 signaling assessment, quantification of plasma leucine levels and measurement of protein synthetic rates.

Data set [7] concerns mTORC1. Briefly: Assaying L, R, K analogs for mTORC1 modulation in whole cells (pS6K). Format: cell-based, human. The procedure: Generally, to test analogs of L, R, and K, whole cells (e.g., HEK293) can be starved of all amino acids (using RPMI—aa) for a period of time (e.g., about 50 min), and then stimulated with a combination of L, R, or K and/or an analog of L, R, or K, and mTORC1 activity can be measured by phosphorylation of an mTORC1 substrate (e.g., S6K).
Below are exemplary conditions which can be used to assay analogs of leucine (e.g., photoleucine (photoLeu)) for their ability to activate or suppress mTORC1 activity.
4) RK+0.1× photoLeu 5) RK+0.5× photoLeu 6) RK+1× photoLeu 7) RK+10× photoLeu
9) LRK+0.1× photoLeu 10) LRK+0.5× photoLeu 11) LRK+1× photoLeu 12) LRK+10× photoLeu
Conditions 3-7 above test whether or not a leucine analog (e.g., photoLeu) can substitute for native Leu. […] Those skilled in the art will appreciate that conditions 3-7 above can be modified to assay other analogs, for example, by replacing RK with LK to assay R analogs or by replacing RK with LR to assay K analogs.
Conditions 8-12 above test whether or not a leucine analog (e.g., photoLeu) can compete against native Leu.
The concentration range of analogs used in the protocol set forth above was from about 0.1× to 10× (relative to RPMI), however, other concentrations may be used, as will be appreciated by the skilled artisan.

In data set [8] the test system is mice, hindlimb immobilization model of muscle atrophy. Briefly: Hindlimb immobilization/recovery model of muscle atrophy, gastrocnemius mass. Particulars: left hindlimb immobilized 5 days, 5 days recovery; IP twice daily; rapamycin daily where indicated. The format is in vivo, mouse.
Procedure: Mice were subjected to immobilization of the left hind limb for 5 days followed by a 5-day recovery period. Each mouse was injected intraperitoneally twice daily at 9 am and 6 pm during the whole immobilization/recovery periods with the indicated amino acid esters or vehicle control. Rapamycin or vehicle control was injected daily where indicated. Following completion of the study both the right and left gastrocnemius were removed and mass of each muscle was recorded. Percent recovery was calculated by comparing the mass of the left immobilized gastrocnemius to that of the contralateral control leg. Standard error is shown, n=5-6 per treatment.
The protocol of hindlimb immobilization involves casting of the rear left leg, resulting in atrophy of the gastrocnemius and soleus muscles. The rear right leg remains free, and serves as an internal control for gastrocnemius and soleus muscle mass.
The inventors performed an experiment where left hindlimbs were immobilized for 5 days, casts were removed, and a recovery period of 5 days continued until the study endpoint. Animals were injected with PBS as control, L ethyl ester, or LR ethyl esters twice daily. As in the previous experiment, the 1× doses of amino acids and their esters were calculated as 20% of the amount that an adult mouse eats in a 24 h period under ad libitum conditions. […]

Procedure for RagA^GTP/GTP neonates: NS, not significant. […] FIG. 10G is a series of bar graphs illustrating the quantification of neonatal plasma amounts of branched-chain (BCAA) and essential amino acids at birth (left), after 10 h fasting (middle) and after 10 h fasting with rapamycin treatment (right) (n for +/+, G/+ and G/G, respectively: n=4, 5 and 4 for 0 h; n=4, 4 and 3 for 10 h; n=2, 5 and 3 for rapamycin; mean±s.d.). Values are expressed relative to RagA^+/+ amounts at each time point.

Turning to `COC(=O)[C@@H](N)CC(C)C` [leucine methyl ester], in the data set with mTORC1 [1], the “mTORC1 stimulatory activity of derivative compared with the corresponding native amino acid” value is recorded as “modestly more stimulatory than the corresponding native amino acid”. For the molecule `NC(=O)c1ncn([C@@H]2O[C@H](CO)[C@@H](O)[C@H]2O)c1N` [AICAR, aminoimidazole carboxamide ribonucleotide], the “mTORC1 activity in RagA^+/+ and RagA^GTP/GTP MEFs” value with mTORC1 [2] is “inhibited mTORC1 in cells of all genotypes”.

Regarding `COC(=O)[C@@H](N)CCCCN` [lysine methyl ester], the “mTORC1 stimulatory activity of derivative compared with the corresponding native amino acid” value in the data set on mTORC1 [1] is recorded as “modestly more stimulatory than the corresponding native amino acid”. Same read-out and setting: the same measure for `CC(C)C[C@H](NC(=O)OCc1ccccc1)C(=O)O`: “retains the ability to signal to mTORC1, albeit with lower potency than native Leu”.

On to `NCCCC[C@H](N)C(=O)O` [lysine, L-lysine], for which the “bioavailability of orally ingested amino acid” value in [3] (Fry C S et al. 2011) is “superior to leucine and arginine”. Regarding `CCOC(=O)[C@@H](N)CCCCN` [lysine ethyl ester], the “mTORC1 stimulatory activity of derivative compared with the corresponding native amino acid” value with mTORC1 [1] is reported as “modestly more stimulatory than the corresponding native amino acid”.

Regarding `CO[C@H]1C[C@@H]2CC[C@@H](C)[C@@](O)(O2)C(=O)C(=O)N2CCCC[C@H]2C(=O)O[C@H]([C@H](C)C[C@@H]2CC[C@@H](O)[C@H](OC)C2)CC(=O)[C@H](C)/C=C(\C)[C@@H](O)[C@@H](OC)C(=O)[C@H](C)C[C@H](C)/C=C/C=C/C=C/1C` [rapamycin], the “time to death of fasted RagA^GTP/GTP neonates” value in the data set with RagA^GTP/GTP neonates (treated at birth, untreated ˜14 h, p<0.01) is on record as roughly 21 h.

`NC(=O)NCCC[C@H](N)C(=O)O` [citrulline, L-Citrulline]: the “circulating citrulline converted to arginine by the kidneys” value in data set [3] (Bahri S. et al. 2013) is “over 80%”. Further, in the data set on mTORC1 [4], the “mTORC1 activation at the level of muscle, as substitute for arginine” value is “adequate substitute for arginine for mTORC1 activation at the level of muscle” and the “mTORC1 activation in liver, as substitute for arginine” value was “less potent at activating mTORC1 in liver”. For the same molecule, the “conversion of citrulline to arginine” value in [5] is on record as “little to no conversion of citrulline to arginine”.

`C[C@H](N)C(=O)O` [alanine]: the “glycaemia of fasted neonates after injection” value in the data set on RagA^GTP/GTP neonates (all neonates regardless of genotype) is recorded as “provoked a significant increase in glycaemia”. For `CC(C)C[C@H](N)C(=O)O` [leucine, L-leucine], in the data set with mTORC1 [6], the “mTORC1 activity (phosphorylated S6 and 4EBP1) in non-immobilized (R) gastrocnemius” value is recorded as “stimulated mTORC1 in the non-immobilized muscle in all mice”. In addition, the “mTORC1 activity (phosphorylated S6 and 4EBP1) in immobilized (L*) gastrocnemius compared to fasted controls” value with mTORC1 [6] (5 days immobilization, LRK = 1× (L-Leucine, L-Arginine) plus 0.1× L-Lysine) is “unable to increase mTORC1 activity in the immobilized (L*) gastrocnemius muscle in four of the 5 mice”. In the data set on muscle protein synthesis, the “muscle protein synthesis (MPS) rate in gastrocnemius” value was “little difference between fasted rats and rats given leucine alone”. As for `CC1(C[C@H](N)C(=O)O)N=N1` [photoLeu], the “suppression of pS6K signal caused by baseline LRK (antagonist test)” value with mTORC1 [7] (LRK + 0.1× to 10× analog (relative to RPMI)) was “not an antagonist or mTORC1-inactivating competitor against native Leu”. In the data set on mTORC1 [7] (RK + 0.1× to 10× analog (relative to RPMI)), the “pS6K signal when analog substitutes for native Leu (agonist test)” value is reported as “pS6K signal increases”. For the same molecule, the “mTORC1 stimulatory activity of derivative compared with the corresponding native amino acid” value in the data set with mTORC1 [1] is given as “retains some mTORC1 stimulatory activity”. Consider `CCOC(=O)[C@@H](N)CC(C)C` [leucine ethyl ester, L-leucine ethyl ester], for which the “relative gastrocnemius muscle mass compared to control (PBS injected mice)” value in data set [8] is listed as “the only treatment that led to a significant increase in gastrocnemius muscle mass was LR ethyl ester treatment”. Moreover, in the data set with mTORC1 [1], the “mTORC1 stimulatory activity of derivative compared with the corresponding native amino acid” value was “modestly more stimulatory than the corresponding native amino acid”.
